Patent EP0590919A1, “Therapeutic agents for parkinson's disease” (KYOWA HAKKO KOGYO CO., LTD., priority 1992, dated 1994)

Key:
dd-strain male mice = test: Acute toxicity test (minimum lethal dose, oral); format: in vivo; settings: oral administration, three mice per group, mortality seven days after administration
Experimental: Test compounds were orally administered to groups of dd-strain male mice weighing 20 ± 1 g, each group consisting of three mice. Seven days after the administration, minimum lethal dose (MLD) of each compound was determined by observing the mortality.

A₂ receptor = target: T1, A₂ receptor (Rattus norvegicus, UniProt P30543); test: Adenosine A₂ receptor binding test (³H-CGS 21680 binding); settings: [^3H]CGS 21680 was used, rat corpus striatum, read-out: A2 Receptor Inhibition (%); for inhibition at 1 µM: 10^-6M; for inhibition at 0.1 µM: 10^-7M
T1 construct: from tissue; host or cells: rat corpus striatum membrane preparation
Experimental: The similar procedure as in the above-described adenosine A₁ receptor binding test was repeated using rat corpus striatum to obtain the final precipitate of the tissue thereof. The precipitate was suspended in 50 mM Tris HCl buffer containing 10 mM magnesium chloride and 0.02 unit/mg tissue of adenosine deaminase (manufactured by Sigma Co.) to give a tissue concentration of 5 mg (wet weight)/ml.
The similar procedure as above was repeated to determine the radioactivity bound to the A₂ receptors using 50 µl of CGS 21680 labeled with tritium [³H-2-[p-(2-carboxyethyl)-phenethylamino]-5'-(N-ethylcarboxamide)adenosine: 40 Ci/mmol, manufactured by New England Nuclear Co. (J. Pharmacol. Exp. Ther., 251, 888 (1989)] (final concentration: 4.0 nM) in place of 50 µl of the mixture of N-ethylcarboxamidoadenosine labeled with tritium (³H-NECA: 26 Ci/mmol, manufactured by Amersham Co.) (final concentration: 3.8 nM) and cyclopentyladenosine (CPA, manufactured by Sigma Co.) (final concentration: 50 nM).
The inhibition rate of the test compound against the binding of A₂ receptors (³H-CGS 21680 binding) was calculated by the following equation: [formula] [Notes] • 1. "B" means the amount of radioactivity of ³H-CGS 21680 bound in the presence of a test compound at a concentration shown in Table 4. • 2. "T" means the amount of radioactivity of ³H-CGS 21680 bound in the absence of a test compound. • 3. "N" means the amount of radioactivity of ³H-CGS 21680 bound in the presence of 100 µM CPA.

T1 sequence (P30543 whole entry): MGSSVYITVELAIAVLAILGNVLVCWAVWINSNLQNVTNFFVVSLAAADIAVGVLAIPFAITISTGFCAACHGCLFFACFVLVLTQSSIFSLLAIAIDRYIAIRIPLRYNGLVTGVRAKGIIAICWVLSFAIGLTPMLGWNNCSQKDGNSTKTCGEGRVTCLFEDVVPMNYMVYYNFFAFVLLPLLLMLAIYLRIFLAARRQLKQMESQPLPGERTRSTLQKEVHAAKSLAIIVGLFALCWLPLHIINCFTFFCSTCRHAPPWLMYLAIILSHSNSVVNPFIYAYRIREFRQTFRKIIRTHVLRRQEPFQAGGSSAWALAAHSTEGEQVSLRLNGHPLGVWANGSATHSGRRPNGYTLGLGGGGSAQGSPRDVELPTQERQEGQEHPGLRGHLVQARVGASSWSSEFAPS

Compound	MLD (dd-strain male mice)	inhibition at 1 µM (A₂ receptor)	inhibition at 0.1 µM (A₂ receptor)
CCn1c(=O)c2[nH]c(/C=C/c3cccc(OC)c3)nc2n(CC)c1=O [Compound 39, (E)-1,3-Diethyl-8-(3-methoxystyryl)xanthine]	> 100 mg/kg	88%	80%
CCCCOc1ccc(/C=C/c2nc3c([nH]2)c(=O)n(CC)c(=O)n3CC)cc1 [Compound 41, (E)-8-(4-Butoxystyryl)-1,3-diethylxanthine]	> 100 mg/kg	52%	27%
CCCCOc1ccc(/C=C/c2nc3c(c(=O)n(CC)c(=O)n3CC)n2C)cc1 [Compound 42, (E)-8-(4-Butoxystyryl)-1,3-diethyl-7-methylxanthine]	> 100 mg/kg	87%	46%
CCn1c(=O)c2[nH]c(/C=C/c3ccc(C)cc3)nc2n(CC)c1=O [Compound 43, (E)-1,3-Diethyl-8-(4-methylstyryl)xanthine]	> 100 mg/kg	70%	68%
CCn1c(=O)c2[nH]c(/C=C/c3ccc(OC)c(C)c3)nc2n(CC)c1=O [Compound 47, (E)-1,3-Diethyl-8-(4-methoxy-3-methylstyryl)xanthine]	> 100 mg/kg	92%	67%
CCn1c(=O)c2c(nc(/C=C/c3ccc(OC)c(C)c3)n2C)n(CC)c1=O [Compound 48, (E)-1,3-Diethyl-8-(4-methoxy-3-methylstyryl)-7-methylxanthine]	> 100 mg/kg	99%	83%
CCn1c(=O)c2c(nc(/C=C/c3ccc(C(F)(F)F)cc3)n2C)n(CC)c1=O [Compound 74, (E)-1,3-Diethyl-7-methyl-8-(4-trifluoromethylstyryl)xanthine]	> 300 mg/kg	87%	59%
CCn1c(=O)c2[nH]c(/C=C/c3ccc(Br)cc3)nc2n(CC)c1=O [Compound 77, (E)-8-(4-Bromostyryl)-1,3-diethylxanthine]	> 100 mg/kg	54%	54%
CCn1c(=O)c2[nH]c(/C=C/c3cccc(OC(F)(F)F)c3)nc2n(CC)c1=O [Compound 79, (E)-1,3-Diethyl-8-(3-trifluoromethoxystyryl)xanthine]	> 100 mg/kg	79%	53%
CCn1c(=O)c2c(nc(/C=C/c3cccc(OC(F)(F)F)c3)n2C)n(CC)c1=O [Compound 80, (E)-1,3-Diethyl-7-methyl-8-(3-trifluoromethoxystyryl)xanthine]	> 100 mg/kg	86%	72%
CCn1c(=O)c2[nH]c(/C=C/c3ccc(OCOC)cc3)nc2n(CC)c1=O [Compound 81, (E)-1,3-Diethyl-8-(4-methoxymethoxystyryl)xanthine]	> 100 mg/kg	95%	78%
CCn1c(=O)c2[nH]c(/C=C/c3ccc(F)cc3)nc2n(CC)c1=O [Compound 83, (E)-1,3-Diethyl-8-(4-fluorostyryl)xanthine]	> 100 mg/kg	70%	75%
CCn1c(=O)c2[nH]c(/C=C/c3cc(F)cc(F)c3)nc2n(CC)c1=O [Compound 87, (E)-8-(3,5-Difluorostyryl)-1,3-diethylxanthine]	> 100 mg/kg	66%	59%
CCn1c(=O)c2[nH]c(/C=C/c3cccc([N+](=O)[O-])c3)nc2n(CC)c1=O [Compound 89, (E)-1,3-Diethyl-8-(3-nitrostyryl)xanthine]	> 100 mg/kg	78%	59%
CCn1c(=O)c2[nH]c(/C=C/c3cccc(Br)c3)nc2n(CC)c1=O [Compound 91, (E)-8-(3-Bromostyryl)-1,3-diethylxanthine]	> 100 mg/kg	51%	9%
CCn1c(=O)c2[nH]c(/C=C/c3cccc(C(F)(F)F)c3)nc2n(CC)c1=O [Compound 93, (E)-1,3-Diethyl-8-(3-trifluoromethylstyryl)xanthine]	> 100 mg/kg	85%	53%
CCn1c(=O)c2c(nc(/C=C/c3cccc(C(F)(F)F)c3)n2C)n(CC)c1=O [Compound 94, (E)-1,3-Diethyl-7-methyl-8-(3-trifluoromethylstyryl)xanthine]	> 100 mg/kg	98%	71%
CCn1c(=O)c2[nH]c(/C=C/c3cc4c(cc3Br)OCO4)nc2n(CC)c1=O [Compound 95, (E)-8-(2-Bromo-4,5-methylenedioxystyryl)-1,3-diethylxanthine]	> 100 mg/kg	89%	75%
CCn1c(=O)c2c(nc(/C=C/c3cc4c(cc3Br)OCO4)n2C)n(CC)c1=O [Compound 96, (E)-8-(2-Bromo-4,5-methylenedioxystyryl)-1,3-diethyl-7-methylxanthine]	> 100 mg/kg	101%	84%
CCn1c(=O)c2[nH]c(/C=C/c3ccccc3F)nc2n(CC)c1=O [Compound 97, (E)-1,3-Diethyl-8-(2-fluorostyryl)xanthine]	> 100 mg/kg	87%	66%
CCn1c(=O)c2c(nc(/C=C/c3ccccc3F)n2C)n(CC)c1=O [Compound 98, (E)-1,3-Diethyl-8-(2-fluorostyryl)-7-methylxanthine]	> 100 mg/kg	95%	92%
CCn1c(=O)c2c(nc(/C=C/c3ccc(-c4ccccc4)cc3)n2C)n(CC)c1=O [Compound 101, (E)-1,3-Diethyl-7-methyl-8-(4-phenylstyryl)xanthine]	> 100 mg/kg	76%	36%
CCn1c(=O)c2[nH]c(/C=C/c3ccc(OC)c(F)c3)nc2n(CC)c1=O [Compound 102, (E)-1,3-Diethyl-8-(3-fluoro-4-methoxystyryl)xanthine]	> 100 mg/kg	94%	70%
CCn1c(=O)c2c(nc(/C=C/c3ccc(F)c(Cl)c3)n2C)n(CC)c1=O [Compound 105, (E)-8-(3-Chloro-4-fluorostyryl)-1,3-diethyl-7-methylxanthine]	> 100 mg/kg	96%	76%
CCn1c(=O)c2[nH]c(/C=C/c3cc(OC)c4c(c3)OCO4)nc2n(CC)c1=O [Compound 106, (E)-1,3-Diethyl-8-(3-methoxy-4,5-methylenedioxystyryl)xanthine]	> 100 mg/kg	94%	83%
CCn1c(=O)c2[nH]c(/C=C/c3cccc(F)c3C)nc2n(CC)c1=O [Compound 108, (E)-1,3-Diethyl-8-(3-fluoro-2-methylstyryl)xanthine]	> 100 mg/kg	94%	87%
CCn1c(=O)c2c(nc(/C=C/c3ccc(OCCCCBr)cc3)n2C)n(CC)c1=O [Compound 114, (E)-8-[4-(4-Bromobutoxy)styryl]-1,3-diethyl-7-methylxanthine]	> 100 mg/kg	87%	23%
CCn1c(=O)c2c(nc(/C=C/c3ccc(OCCCCN=[N+]=[N-])cc3)n2C)n(CC)c1=O [Compound 115, (E)-8-[4-(4-Azidobutoxy)styryl]-1,3-diethyl-7-methylxanthine]	> 100 mg/kg	79%	34%
CCn1c(=O)c2c(nc(/C=C/c3cccc(Oc4ccccc4)c3)n2C)n(CC)c1=O [Compound 120, (E)-1,3-Diethyl-7-methyl-8-(3-phenoxystyryl)xanthine]	> 100 mg/kg	75%	89%
